Experimental data reported in patent publication US7465730B2, “Treatment of neuropathic pain with 6H-pyrrolo[3,4-d]pyridazine compounds” (Merck & Co. Inc., priority 2002, dated 2008).

Test system: nerve injury-induced tactile allodynia
Experiment: Spinal nerve ligation model (Chung model) of neuropathic pain
Type: in vivo, Male Sprague Dawley rats
Conditions: rat
Description: The spinal nerve ligation model of neuropathic pain was used to assess the effects of test compounds on nerve injury-induced tactile allodynia (S. H. Kim and J. M. Chung, Pain 50:355-363(1992)). Male Sprague Dawley rats (175-200 g) received unilateral tight ligation of the left L5/L6 spinal nerves distal to the dorsal root ganglion using 4-0 silk suture. Behavioral-nociceptive testing occurred 7-14 days following spinal nerve ligation by placing the rats in chambers on a wire mesh. Rats were tested for tactile allodynia (decreased hindpaw withdrawal threshold to non-noxious punctate stimulation) by applying a series of calibrated von Frey filaments to the plantar aspect of the left hindpaw ipsilateral to the site of nerve injury. The mean 50% hindpaw withdrawal threshold (g.) was determined using the Dixon “up-down” non-parametric test (Chaplan et al., J. Neurosci. Methods, 53:55-63(1994)). […] Following determination of pre-drug withdrawal thresholds, rats received either an i.p. or p.o. injection of test compound. The effect of the test compound on tactile allodynia was determined over time by measuring hindpaw withdrawal thresholds 30, 60, 90, 120 min post-injection. In above model, EXAMPLE 1 produced a 65% effect after i.p. dosing at 30 mg/kg, EXAMPLE 50 produced a 100% effect after i.p. dosing at 20 mg/kg, EXAMPLE 115 produced a 60% effect after i.p. dosing at 30 mg/kg i.p.

| SMILES | effect on tactile allodynia (hindpaw withdrawal threshold) (i.p. dosing at 30 mg/kg) | effect on tactile allodynia (hindpaw withdrawal threshold) (i.p. dosing at 20 mg/kg) |
| --- | --- | --- |
| CCOc1ccc(-n2c(C)c3c(C)nnc(-c4ccc(OC)cc4)c3c2C)cc1 [EXAMPLE 1, 6-(4-ethoxyphenyl)-1-(4-methoxyphenyl)-4,5,7-trimethyl-6H-pyrrolo[3,4-d]pyridazine] | 65% |  |
| CCOc1ccc(-n2c(C)c3c(C)nnc(NC4CCc5ccccc54)c3c2C)c(OC)c1 (stereo not drawn) [EXAMPLE 115, N-(2,3-dihydro-1H-inden-1-yl)-6-(4-ethoxy-2-methoxyphenyl)-4,5,7-trimethyl-6H-pyrrolo[3,4-d]pyridazin-1-amine] | 60% |  |
| CCOc1ccc(-n2c(C)c3c(C)nnc(C)c3c2C)cc1 [EXAMPLE 50, 6-(4-ethoxyphenyl)-1,4,5,7-tetramethyl-6H-pyrrolo[3,4-d]pyridazine] |  | 100% |
